Read-outs that look alike come from different tables or passages of the source.
How the values were obtained:
[1] = tested on: kochia (KCHSC, Kochia scoparia); assay: Greenhouse postemergence trial, % visual injury; type: in vivo
Description: Following the protocol in Example 1, compound 1 and compound 2 were combined with 2,4 D EHE (EC) and applied to kochia (KCHSC, Kochia scoparia) and the phytotoxicity of the herbicidal compositions was measured.
Following the protocol in Example 1, compound 1 (EC) and Compound 2 (SC) were combined with diflufenzopyr and applied to kochia (Kochia scoparia, KCHSC) and the phytotoxicity of the herbicidal composition was measured.

[2] = tested on: velvetleaf (Abutilon theophrasti, ABUTH); assay: Greenhouse postemergence trial, % visual injury; type: in vivo; details: for % visual injury Obs: 5 g ae/ha alone, 20-22 d
[3] = tested on: nutsedge (Cyperus esculentus, CYPES); assay: Greenhouse postemergence trial, % visual injury; type: in vivo; details: for pest or weed control at 5 g/ha: Cyperus, post-emergence, 5 g ae/ha alone, 20-22 d, read-out: % visual injury Obs
[4] = tested on: sunflower (Helianthus annus, HELAN); assay: Greenhouse postemergence trial, % visual injury; type: in vivo
[5] = tested on: Canadian thistle (CIRAR, Cirsium arvense); assay: Greenhouse postemergence trial, % visual injury; details: for pest or weed control at 400 g/ha / pest or weed control at 5 g/ha: Cirsium arvense, post-emergence; for % visual injury, Obs: CIRAR; for pest or weed control at 5 g/ha: read-out: % visual injury Obs;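 for all read-outs here: plants sprayed at second to third true leaf stage, injury scored visually 20-22 d later against solvent-blank sprayed controls, 0 meaning no injury and 100 complete kill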
[6] = tested on: spring rape (Brassica napus, BRSNN); assay: Greenhouse postemergence trial, % visual injury; details: for plant injury at 400 g/ha / plant injury at 5 g/ha: Brassica napus, post-emergence; for plant injury at 5 g/ha: read-out: % visual injury Obs
[7] = tested on: wild pansy (Viola tricolor, VIOTR); assay: Greenhouse postemergence trial, % visual injury; details: for % visual injury, Obs: VIOTR; for pest or weed control at 5 g/ha: Viola tricolor, post-emergence, read-out: % visual injury Obs
[8] = tested on: ivyleaf morningglory (Ipomoea hederacea, IPOHE); assay: Greenhouse postemergence trial, % visual injury
winter wheat (TRZAW) = assay: Greenhouse postemergence trial, crop phytotoxicity (% visual injury); details: for % visual injury, Obs: TRZAW; for % visual injury Obs: crop, 5 g ae/ha alone, 20-22 d
maize (ZEAMX) = assay: as above
common rice (ORYSA) = assay: as above; details: for % visual injury, Obs: ORYSA
[9] = tested on: wild buckwheat (Polygonum convolvulus, POLCO); assay: Greenhouse postemergence trial, % visual injury; type: in vivo; details: for % visual injury Obs: 5 g ae/ha alone, 20-22 d
[10] = tested on: poinsettia (Euphorbia heterophylla, EPHHL); assay: Greenhouse postemergence trial, % visual injury; details: for pest or weed control at 5 g/ha: Euphorbia heterophylla, post-emergence, read-out: % visual injury Obs, 5 g ae/ha alone, 20-22 d
[11] = tested on: common chickweed (Stellaria media, STEME); assay: Greenhouse postemergence trial, % visual injury; type: in vivo; details: for % visual injury Obs: 5 g ae/ha alone, 20-22 d
[12] = tested on: large crabgrass (Digitaria sanguinalis, DIGSA); assay: Greenhouse postemergence trial, % visual injury; type: in vivo; details: DIGSA, 5 g ae/ha
[13] = tested on: pigweed (AMARE, Amaranthus retroflexus); assay: Greenhouse postemergence trial, % visual injury; type: in vivo; details: Amaranthus retroflexus, post-emergence; 5 g ae/ha alone; 20-22 d; read-out: % visual injury Obs
[14] = tested on: grain sorghum (Sorghum vulgare, SORVU); assay: Greenhouse postemergence trial, % visual injury; type: in vivo; details: 5 g ae/ha alone; 20-22 d
[15] = read-out: % visual injury (Obs)

## O=C(O)COc1ccc(Cl)cc1Cl [2,4-D DMA, 2,4-D-dimethylammonium]
[1]; 2,4-D DMA 400 g ae/ha
  % visual injury (Obs): 10%
[2]; 2,4-D DMA 400 g ae/ha
  % visual injury (Obs): 75%
[3]; 2,4-D DMA 400 g ae/ha
  % visual injury (Obs): 30%
[4]; 2,4-D DMA 400 g ae/ha
  % visual injury (Obs): 80%
[5]; read-out: % visual injury (Obs), 2,4-D DMA 400 g ae/ha
  pest or weed control at 400 g/ha: 70%
[6]; [15]
  plant injury at 400 g/ha: 85%
[7]; 2,4-D DMA 400 g ae/ha
  % visual injury (Obs): 65%
[8]; 2,4-D DMA 400 g ae/ha
  % visual injury (Obs): 80%
Winter wheat (TRZAW); 2,4-D DMA 400 g ae/ha
  % visual injury (Obs): 0%
Maize (ZEAMX); 2,4-D DMA 400 g ae/ha
  % visual injury (Obs): 0%
Common rice (ORYSA); 2,4-D DMA 400 g ae/ha
  % visual injury (Obs): 0%

## O=C(O)CCCOc1ccc(Cl)cc1Cl [2,4-DB DMA, 4-DB-dimethylammonium (2,4-DB DMA)]
[1]; 2,4-DB DMA 400 g ae/ha
  % visual injury (Obs): 10%
[3]; 2,4-DB DMA 400 g ae/ha
  % visual injury (Obs): 0%
[9]; 2,4-DB DMA 400 g ae/ha
  % visual injury (Obs): 60%
[5]; read-out: % visual injury (Obs), 2,4-DB DMA 400 g ae/ha
  pest or weed control at 400 g/ha: 40%
[6]; [15]
  plant injury at 400 g/ha: 70%
[10]; 2,4-DB DMA 400 g ae/ha
  % visual injury (Obs): 10%
[8]; 2,4-DB DMA 400 g ae/ha
  % visual injury (Obs): 70%
Winter wheat (TRZAW); 2,4-DB DMA 400 g ae/ha
  % visual injury (Obs): 10%
Maize (ZEAMX); 2,4-DB DMA 400 g ae/ha
  % visual injury (Obs): 0%
Common rice (ORYSA); 2,4-DB DMA 400 g ae/ha
  % visual injury (Obs): 0%

## Cc1cc(Cl)ccc1OCC(=O)O [MCPA DMA, MCPA-dimethylammonium]
[11]; STEME, 400 g ae/ha
  % visual injury, Obs: 20%
[5]; 400 g ae/ha
  % visual injury, Obs: 65%
[6]; read-out: % visual injury, Obs
  plant injury at 400 g/ha: 95%
[7]; 400 g ae/ha
  % visual injury, Obs: 30%
Winter wheat (TRZAW); 400 g ae/ha
  % visual injury, Obs: 0%
Common rice (ORYSA); 400 g ae/ha
  % visual injury, Obs: 0%

## COc1c(Cl)ccc(-c2nc(C(=O)OCc3ccccc3)c(Cl)c(N)c2F)c1F [Rinskor ™]
[1]; KCHSC, 5 g ae/ha
  % visual injury, Obs: 50%
[2]; ABUTH, 5 g ae/ha
  % visual injury, Obs: 80%
[3]; CYPES, 5 g ae/ha
  % visual injury, Obs: 70%
[4]; HELAN, 5 g ae/ha
  % visual injury, Obs: 85%
[9]; POLCO, 5 g ae/ha
  % visual injury, Obs: 60%
[12]
  % visual injury, Obs: 0%
[5]; 5 g ae/ha
  % visual injury, Obs: 70%
[6]; BRSNN, 5 g ae/ha
  % visual injury, Obs: 20%
[7]; 5 g ae/ha
  % visual injury, Obs: 10%
Winter wheat (TRZAW); 5 g ae/ha
  % visual injury, Obs: 0%
Maize (ZEAMX); ZEAMX, 5 g ae/ha
  % visual injury, Obs: 0%
Common rice (ORYSA); 5 g ae/ha
  % visual injury, Obs: 0%

## COC(=O)c1nc(-c2ccc3scnc3c2)c(F)c(N)c1Cl [compound 8]
[13]
  pest or weed control at 5 g/ha: 78%
[2]
  % visual injury Obs: 20%
[11]
  % visual injury Obs: 45%
[5]
  pest or weed control at 5 g/ha: 30%
[6]
  plant injury at 5 g/ha: 63%
[10]
  pest or weed control at 5 g/ha: 84%
[7]
  pest or weed control at 5 g/ha: 10%
Winter wheat (TRZAW)
  % visual injury Obs: 5%

## COC(=O)c1nc(-c2ccc3sccc3c2)c(F)c(N)c1Cl [compound 9]
[3]
  pest or weed control at 5 g/ha: 0%
[9]
  % visual injury Obs: 25%
[5]
  pest or weed control at 5 g/ha: 10%
[6]
  plant injury at 5 g/ha: 10%
[10]
  pest or weed control at 5 g/ha: 60%
[7]
  pest or weed control at 5 g/ha: 15%
Winter wheat (TRZAW)
  % visual injury Obs: 0%
Maize (ZEAMX); crop, 5 g ae/ha alone, 20-22 d
  % visual injury Obs: 0%

## Nc1c(F)c(-c2ccc3ccoc3c2)nc(C(=O)O)c1Cl [compound 10]
[2]
  % visual injury Obs: 15%
[3]
  pest or weed control at 5 g/ha: 5%
[9]
  % visual injury Obs: 10%
[14]
  % visual injury Obs: 5%
[11]
  % visual injury Obs: 70%
[5]
  pest or weed control at 5 g/ha: 15%
[6]
  plant injury at 5 g/ha: 15%
[10]
  pest or weed control at 5 g/ha: 75%
[7]
  pest or weed control at 5 g/ha: 25%
Winter wheat (TRZAW)
  % visual injury Obs: 5%

Source: US9521847B2, “Synergistic weed control from applications of pyridine carboxylic acid herbicides and synthetic auxin herbicides and/or auxin transport inhibitors” (Dow AgroSciences LLC, priority 2014, dated 2016)
